Assay results from ChEMBL document CHEMBL1201862, “PubChem BioAssay data set” (2004).
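How tested: cells in 96-well plates exposed to compound for 48 hours at five concentrations. GI50 is the concentration that inhibits growth by half.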 Activity calls are given as the source filed them. Cut-off read from the data, not from the text of the source: active = GI50 up to about 1.1 µM and inactive = higher.

Legend:
Assay in all cases: NCI tumour cell line growth inhibition, 48 h
RXF 393 = test system: RXF 393
NCI-H226 = test system: NCI-H226
HCC 2998 = test system: HCC 2998
A498 = test system: A498
COLO 205 = test system: COLO 205
SK-OV-3 = test system: SK-OV-3
HT-29 = test system: HT-29
MDA-MB-435 = test system: MDA-MB-435
SF-539 = test system: SF-539
MDA-N = test system: MDA-N
786-0 = test system: 786-0
CAKI-1 = test system: CAKI-1
HOP-62 = test system: HOP-62
CCRF-CEM = test system: CCRF-CEM
Malme-3M = test system: Malme-3M
SNB-19 = test system: SNB-19
LOX IMVI = test system: LOX IMVI
A549 = test system: A549
OVCAR-8 = test system: OVCAR-8
SW-620 = test system: SW-620
U-251 = test system: U-251
SF-268 = test system: SF-268
NCI-H522 = test system: NCI-H522
DU-145 = test system: DU-145
KM12 = test system: KM12
HCT-15 = test system: HCT-15
SF-295 = test system: SF-295
EKVX = test system: EKVX
SK-MEL-28 = test system: SK-MEL-28
IGROV-1 = test system: IGROV-1
SK-MEL-5 = test system: SK-MEL-5
OVCAR-4 = test system: OVCAR-4
Hs-578T = test system: Hs-578T
NCI/ADR-RES = test system: NCI/ADR-RES
SNB-75 = test system: SNB-75
SR = test system: SR
MDA-MB-231 = test system: MDA-MB-231
OVCAR-3 = test system: OVCAR-3
UACC-257 = test system: UACC-257
ACHN = test system: ACHN
OVCAR-5 = test system: OVCAR-5
K562 = test system: K562
MOLT-4 = test system: MOLT-4
RPMI-8226 = test system: RPMI-8226
PC-3 = test system: PC-3
MCF7 = test system: MCF7
UACC-62 = test system: UACC-62
HOP-92 = test system: HOP-92
HCT-116 = test system: HCT-116
M14 = test system: M14
NCI-H460 = test system: NCI-H460
T47D = test system: T47D
NCI-H23 = test system: NCI-H23
TK-10 = test system: TK-10
HL-60 = test system: HL-60
SN12C = test system: SN12C
SK-MEL-2 = test system: SK-MEL-2
UO-31 = test system: UO-31
BT-549 = test system: BT-549

## CCOC(=O)c1sc2c(c1OC(=O)c1ccc(OC)cc1)c(=O)n(-c1ccccc1)c(=S)n2-c1ccccc1
RXF 393
  GI50: > 100 µM (inactive)
NCI-H226
  GI50: 24.9 µM (inactive)
HCC 2998
  GI50: 16.3 µM (inactive)
A498
  GI50: 17.1 µM (inactive)
COLO 205
  GI50: > 100 µM (inactive)
SK-OV-3
  GI50: > 100 µM (inactive)
HT-29
  GI50: > 100 µM (inactive)
MDA-MB-435
  GI50: > 100 µM (inactive)
SF-539
  GI50: 77.8 µM (inactive)
MDA-N
  GI50: > 100 µM (inactive)
786-0
  GI50: 35.5 µM (inactive)
CAKI-1
  GI50: > 100 µM (inactive)
HOP-62
  GI50: 54 µM (inactive)
CCRF-CEM
  GI50: > 100 µM (inactive)
Malme-3M
  GI50: 61.7 µM (inactive)
SNB-19
  GI50: > 100 µM (inactive)
LOX IMVI
  GI50: > 100 µM (inactive)
A549
  GI50: > 100 µM (inactive)
OVCAR-8
  GI50: > 100 µM (inactive)
SW-620
  GI50: > 100 µM (inactive)
U-251
  GI50: > 100 µM (inactive)
SF-268
  GI50: > 100 µM (inactive)
NCI-H522
  GI50: 1.41 µM (inactive)
DU-145
  GI50: > 100 µM (inactive)
KM12
  GI50: > 100 µM (inactive)
HCT-15
  GI50: > 100 µM
SF-295
  GI50: > 100 µM (inactive)
EKVX
  GI50: > 100 µM (inactive)
SK-MEL-28
  GI50: > 100 µM (inactive)
IGROV-1
  GI50: > 100 µM (inactive)
SK-MEL-5
  GI50: 27.6 µM (inactive)
OVCAR-4
  GI50: 10.2 µM (inactive)
Hs-578T
  GI50: > 100 µM (inactive)
NCI/ADR-RES
  GI50: 21.8 µM (inactive)
SNB-75
  GI50: > 100 µM (inactive)
SR
  GI50: 36.5 µM (inactive)
MDA-MB-231
  GI50: 16.4 µM (inactive)
OVCAR-3
  GI50: > 100 µM (inactive)
UACC-257
  GI50: > 100 µM (inactive)
ACHN
  GI50: > 100 µM (inactive)
OVCAR-5
  GI50: > 100 µM (inactive)
K562
  GI50: > 100 µM (inactive)
MOLT-4
  GI50: > 100 µM (inactive)
RPMI-8226
  GI50: > 100 µM (inactive)
PC-3
  GI50: > 100 µM (inactive)
MCF7
  GI50: > 100 µM (inactive)
UACC-62
  GI50: > 100 µM (inactive)
HOP-92
  GI50: 20.9 µM (inactive)
HCT-116
  GI50: 20.7 µM (inactive)
M14
  GI50: > 100 µM (inactive)
NCI-H460
  GI50: 94.6 µM (inactive)
T47D
  GI50: > 100 µM (inactive)
NCI-H23
  GI50: > 100 µM (inactive)
TK-10
  GI50: > 100 µM (inactive)
HL-60
  GI50: > 100 µM (inactive)
SN12C
  GI50: 75.7 µM (inactive)

## O=c1ccn(C2OC(COC3CCCCO3)C(OC3CCCCO3)C2OC2CCCCO2)c(=O)n1-c1ccccc1 (stereo not drawn)
RXF 393
  GI50: > 100 µM (inactive)
NCI-H226
  GI50: > 100 µM (inactive)
HCC 2998
  GI50: > 100 µM (inactive)
A498
  GI50: > 100 µM (inactive)
COLO 205
  GI50: > 100 µM (inactive)
SK-OV-3
  GI50: > 100 µM (inactive)
HT-29
  GI50: > 100 µM (inactive)
MDA-MB-435
  GI50: > 100 µM (inactive)
SF-539
  GI50: > 100 µM (inactive)
MDA-N
  GI50: > 100 µM (inactive)
786-0
  GI50: > 100 µM (inactive)
CAKI-1
  GI50: > 100 µM (inactive)
HOP-62
  GI50: > 100 µM (inactive)
CCRF-CEM
  GI50: > 100 µM (inactive)
Malme-3M
  GI50: > 100 µM (inactive)
SNB-19
  GI50: > 100 µM (inactive)
LOX IMVI
  GI50: > 100 µM (inactive)
A549
  GI50: > 100 µM (inactive)
OVCAR-8
  GI50: > 100 µM (inactive)
SW-620
  GI50: > 100 µM (inactive)
U-251
  GI50: > 100 µM (inactive)
SF-268
  GI50: > 100 µM (inactive)
NCI-H522
  GI50: > 100 µM (inactive)
DU-145
  GI50: > 100 µM (inactive)
KM12
  GI50: > 100 µM (inactive)
HCT-15
  GI50: > 100 µM
SF-295
  GI50: > 100 µM (inactive)
EKVX
  GI50: > 100 µM (inactive)
SK-MEL-28
  GI50: > 100 µM (inactive)
IGROV-1
  GI50: > 100 µM (inactive)
SK-MEL-5
  GI50: > 100 µM (inactive)
OVCAR-4
  GI50: > 100 µM (inactive)
Hs-578T
  GI50: > 100 µM (inactive)
NCI/ADR-RES
  GI50: > 100 µM (inactive)
SNB-75
  GI50: > 100 µM (inactive)
SR
  GI50: 51.5 µM (inactive)
MDA-MB-231
  GI50: > 100 µM (inactive)
OVCAR-3
  GI50: > 100 µM (inactive)
UACC-257
  GI50: > 100 µM (inactive)
ACHN
  GI50: > 100 µM (inactive)
OVCAR-5
  GI50: > 100 µM (inactive)
K562
  GI50: 91.6 µM (inactive)
MOLT-4
  GI50: > 100 µM (inactive)
SK-MEL-2
  GI50: > 100 µM (inactive)
RPMI-8226
  GI50: > 100 µM (inactive)
PC-3
  GI50: > 100 µM (inactive)
MCF7
  GI50: > 100 µM (inactive)
HOP-92
  GI50: > 100 µM (inactive)
HCT-116
  GI50: > 100 µM (inactive)
M14
  GI50: > 100 µM (inactive)
NCI-H460
  GI50: > 100 µM (inactive)
T47D
  GI50: > 100 µM (inactive)
NCI-H23
  GI50: > 100 µM (inactive)
TK-10
  GI50: > 100 µM (inactive)
HL-60
  GI50: > 100 µM (inactive)
UO-31
  GI50: > 100 µM (inactive)
SN12C
  GI50: > 100 µM (inactive)

## COc1ccc(CC2(O)C3CC4CCC2C4C3)cc1 (stereo not drawn)
NCI-H226
  GI50: 88.1 µM (inactive)
COLO 205
  GI50: 74.3 µM (inactive)
SK-OV-3
  GI50: > 100 µM (inactive)
HT-29
  GI50: 58.1 µM (inactive)
MDA-MB-435
  GI50: > 100 µM (inactive)
786-0
  GI50: > 100 µM (inactive)
CAKI-1
  GI50: > 100 µM (inactive)
HOP-62
  GI50: > 100 µM (inactive)
CCRF-CEM
  GI50: 42 µM (inactive)
Malme-3M
  GI50: > 100 µM (inactive)
SNB-19
  GI50: > 100 µM (inactive)
LOX IMVI
  GI50: > 100 µM (inactive)
A549
  GI50: 79.4 µM (inactive)
OVCAR-8
  GI50: > 100 µM (inactive)
SW-620
  GI50: > 100 µM (inactive)
U-251
  GI50: > 100 µM (inactive)
SF-268
  GI50: > 100 µM (inactive)
NCI-H522
  GI50: 88.3 µM (inactive)
KM12
  GI50: > 100 µM (inactive)
HCT-15
  GI50: > 100 µM
SF-295
  GI50: 42.6 µM (inactive)
EKVX
  GI50: 49.8 µM (inactive)
SK-MEL-28
  GI50: > 100 µM (inactive)
IGROV-1
  GI50: > 100 µM (inactive)
SK-MEL-5
  GI50: 31.9 µM (inactive)
OVCAR-4
  GI50: > 100 µM (inactive)
Hs-578T
  GI50: 85.3 µM (inactive)
BT-549
  GI50: 36.6 µM (inactive)
NCI/ADR-RES
  GI50: 44.7 µM (inactive)
SNB-75
  GI50: 48.9 µM (inactive)
SR
  GI50: 58.7 µM (inactive)
OVCAR-3
  GI50: > 100 µM (inactive)
UACC-257
  GI50: 38.5 µM (inactive)
ACHN
  GI50: > 100 µM (inactive)
OVCAR-5
  GI50: > 100 µM (inactive)
K562
  GI50: 49.1 µM (inactive)
MOLT-4
  GI50: 45 µM (inactive)
SK-MEL-2
  GI50: > 100 µM (inactive)
RPMI-8226
  GI50: > 100 µM (inactive)
PC-3
  GI50: 39.2 µM (inactive)
MCF7
  GI50: 65.6 µM (inactive)
UACC-62
  GI50: > 100 µM (inactive)
HOP-92
  GI50: 58.5 µM (inactive)
M14
  GI50: > 100 µM (inactive)
NCI-H460
  GI50: 68.5 µM (inactive)
NCI-H23
  GI50: 64.4 µM (inactive)
TK-10
  GI50: 69.3 µM (inactive)
HL-60
  GI50: 51.1 µM (inactive)
UO-31
  GI50: 49.7 µM (inactive)
SN12C
  GI50: 77.4 µM (inactive)
